Experimental data from PubChem BioAssay (NCI).
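Grown in 96-well plates, cells were treated for 48 hours with each compound at five concentrations. Insufficient inhibition: endpoint recorded as highest concentration tested. GI50 is the concentration that inhibits growth by half. TGI denotes the concentration required for complete inhibition of growth.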

Assays:
Experiment in all cases: NCI tumour cell line growth inhibition, 48 h
CAKI-1 renal = tested on: CAKI-1 renal
KM12 colon = tested on: KM12 colon
UO-31 renal = tested on: UO-31 renal
RXF 393 renal = tested on: RXF 393 renal
UACC-62 melanoma = tested on: UACC-62 melanoma
NCI-H226 lung = tested on: NCI-H226 lung
K-562 leukemia = tested on: K-562 leukemia
M14 melanoma = tested on: M14 melanoma
COLO 205 colon = tested on: COLO 205 colon
NCI/ADR-RES ovarian = tested on: NCI/ADR-RES ovarian
SK-OV-3 ovarian = tested on: SK-OV-3 ovarian
DU-145 prostate = tested on: DU-145 prostate
UACC-257 melanoma = tested on: UACC-257 melanoma
HOP-92 NSCLC = tested on: HOP-92 NSCLC
SF-295 CNS = tested on: SF-295 CNS
PC-3 prostate = tested on: PC-3 prostate
OVCAR-8 ovarian = tested on: OVCAR-8 ovarian
NCI-H460 lung = tested on: NCI-H460 lung
OVCAR-4 ovarian = tested on: OVCAR-4 ovarian
SF-268 CNS = tested on: SF-268 CNS
NCI-H23 lung = tested on: NCI-H23 lung
A498 renal = tested on: A498 renal
RPMI-8226 leukemia = tested on: RPMI-8226 leukemia
SK-MEL-28 melanoma = tested on: SK-MEL-28 melanoma
HCT-116 colon = tested on: HCT-116 colon
MDA-MB-231 breast = tested on: MDA-MB-231 breast
LOX IMVI melanoma = tested on: LOX IMVI melanoma
MALME-3M melanoma = tested on: MALME-3M melanoma
U251 CNS = tested on: U251 CNS
SK-MEL-2 melanoma = tested on: SK-MEL-2 melanoma
SK-MEL-5 melanoma = tested on: SK-MEL-5 melanoma
786-0 renal = tested on: 786-0 renal
SF-539 CNS = tested on: SF-539 CNS
MCF7 breast = tested on: MCF7 breast
SW-620 colon = tested on: SW-620 colon
MOLT-4 leukemia = tested on: MOLT-4 leukemia
HS 578T breast = tested on: HS 578T breast
ACHN renal = tested on: ACHN renal
NCI-H522 lung = tested on: NCI-H522 lung
SNB-19 CNS = tested on: SNB-19 CNS
SNB-75 CNS = tested on: SNB-75 CNS
MDA-N = tested on: MDA-N
HCC-2998 colon = tested on: HCC-2998 colon
A549 NSCLC = tested on: A549 NSCLC
TK-10 renal = tested on: TK-10 renal
SR leukemia = tested on: SR leukemia
EKVX NSCLC = tested on: EKVX NSCLC
IGROV1 ovarian = tested on: IGROV1 ovarian
HCT-15 colon = tested on: HCT-15 colon
BT-549 breast = tested on: BT-549 breast
OVCAR-5 ovarian = tested on: OVCAR-5 ovarian
HT29 colon = tested on: HT29 colon
SN12C renal = tested on: SN12C renal
HOP-62 NSCLC = tested on: HOP-62 NSCLC
T-47D breast = tested on: T-47D breast
MDA-MB-435 = tested on: MDA-MB-435
OVCAR-3 ovarian = tested on: OVCAR-3 ovarian

O=[N+]([O-])[O][Sn]([O][Sn]([O][N+](=O)[O-])([c]1ccccc1)[c]1ccccc1)([c]1ccccc1)[c]1ccccc1 showed a GI50 (CAKI-1 renal) of over 100 µM, a TGI (CAKI-1 renal) of over 100 µM and a GI50 (KM12 colon) of over 100 µM. The TGI (KM12 colon) was over 100 µM, the GI50 (UO-31 renal) was over 100 µM and the TGI (UO-31 renal) was over 100 µM. For the same compound, the GI50 (RXF 393 renal) was over 100 µM, the TGI (RXF 393 renal) was over 100 µM and the GI50 (UACC-62 melanoma) was 53.6 µM. The TGI (UACC-62 melanoma) was over 100 µM, the GI50 (NCI-H226 lung) was over 100 µM and the TGI (NCI-H226 lung) was over 100 µM. It also gave a GI50 (K-562 leukemia) of over 100 µM, a TGI (K-562 leukemia) of over 100 µM and a GI50 (M14 melanoma) of over 100 µM. The TGI (M14 melanoma) was over 100 µM, the GI50 (COLO 205 colon) was over 100 µM and the TGI (COLO 205 colon) was over 100 µM. For the same compound, the GI50 (NCI/ADR-RES ovarian) was over 100 µM, the TGI (NCI/ADR-RES ovarian) was over 100 µM and the GI50 (SK-OV-3 ovarian) was over 100 µM. It also gave a TGI (SK-OV-3 ovarian) of over 100 µM, a GI50 (DU-145 prostate) of over 100 µM and a TGI (DU-145 prostate) of over 100 µM. It also gave a GI50 (UACC-257 melanoma) of over 100 µM, a TGI (UACC-257 melanoma) of over 100 µM and a GI50 (HOP-92 NSCLC) of 38.6 µM. The TGI (HOP-92 NSCLC) was over 100 µM, the GI50 (SF-295 CNS) was over 100 µM and the TGI (SF-295 CNS) was over 100 µM. It also gave a GI50 (PC-3 prostate) of 63.2 µM, a TGI (PC-3 prostate) of over 100 µM and a GI50 (OVCAR-8 ovarian) of over 100 µM. It also gave a TGI (OVCAR-8 ovarian) of over 100 µM, a GI50 (NCI-H460 lung) of over 100 µM and a TGI (NCI-H460 lung) of over 100 µM. The GI50 (OVCAR-4 ovarian) was over 100 µM, the TGI (OVCAR-4 ovarian) was over 100 µM and the GI50 (SF-268 CNS) was over 100 µM. It also gave a TGI (SF-268 CNS) of over 100 µM, a GI50 (NCI-H23 lung) of over 100 µM and a TGI (NCI-H23 lung) of over 100 µM. It also gave a GI50 (A498 renal) of over 100 µM, a TGI (A498 renal) of over 100 µM and a GI50 (RPMI-8226 leukemia) of over 100 µM. For the same compound, the TGI (RPMI-8226 leukemia) was over 100 µM, the GI50 (SK-MEL-28 melanoma) was over 100 µM and the TGI (SK-MEL-28 melanoma) was over 100 µM. It also gave a GI50 (HCT-116 colon) of over 100 µM, a TGI (HCT-116 colon) of over 100 µM and a GI50 (MDA-MB-231 breast) of over 100 µM. The TGI (MDA-MB-231 breast) was over 100 µM, the GI50 (LOX IMVI melanoma) was 83.4 µM and the TGI (LOX IMVI melanoma) was over 100 µM. For the same compound, the GI50 (MALME-3M melanoma) was 79.3 µM, the TGI (MALME-3M melanoma) was over 100 µM and the GI50 (U251 CNS) was over 100 µM. For the same compound, the TGI (U251 CNS) was over 100 µM, the GI50 (SK-MEL-2 melanoma) was over 100 µM and the TGI (SK-MEL-2 melanoma) was over 100 µM. For the same compound, the GI50 (SK-MEL-5 melanoma) was over 100 µM, the TGI (SK-MEL-5 melanoma) was over 100 µM and the GI50 (786-0 renal) was over 100 µM. For the same compound, the TGI (786-0 renal) was over 100 µM, the GI50 (SF-539 CNS) was over 100 µM and the TGI (SF-539 CNS) was over 100 µM. It also gave a GI50 (MCF7 breast) of over 100 µM, a TGI (MCF7 breast) of over 100 µM and a GI50 (SW-620 colon) of over 100 µM. The TGI (SW-620 colon) was over 100 µM, the GI50 (MOLT-4 leukemia) was over 100 µM and the TGI (MOLT-4 leukemia) was over 100 µM. For the same compound, the GI50 (HS 578T breast) was 47.1 µM, the TGI (HS 578T breast) was over 100 µM and the GI50 (ACHN renal) was over 100 µM. It also gave a TGI (ACHN renal) of over 100 µM, a GI50 (NCI-H522 lung) of 23.1 µM and a TGI (NCI-H522 lung) of over 100 µM. For the same compound, the GI50 (SNB-19 CNS) was over 100 µM, the TGI (SNB-19 CNS) was over 100 µM and the GI50 (SNB-75 CNS) was over 100 µM. For the same compound, the TGI (SNB-75 CNS) was over 100 µM, the GI50 (MDA-N) was over 100 µM and the TGI (MDA-N) was over 100 µM. For the same compound, the GI50 (HCC-2998 colon) was over 100 µM, the TGI (HCC-2998 colon) was over 100 µM and the GI50 (A549 NSCLC) was over 100 µM. For the same compound, the TGI (A549 NSCLC) was over 100 µM, the GI50 (TK-10 renal) was over 100 µM and the TGI (TK-10 renal) was over 100 µM. It also gave a GI50 (SR leukemia) of over 100 µM, a TGI (SR leukemia) of over 100 µM and a GI50 (EKVX NSCLC) of over 100 µM. For the same compound, the TGI (EKVX NSCLC) was over 100 µM, the GI50 (IGROV1 ovarian) was 72.8 µM and the TGI (IGROV1 ovarian) was over 100 µM. For the same compound, the GI50 (HCT-15 colon) was over 100 µM, the TGI (HCT-15 colon) was over 100 µM and the GI50 (BT-549 breast) was over 100 µM. It also gave a TGI (BT-549 breast) of over 100 µM, a GI50 (OVCAR-5 ovarian) of over 100 µM and a TGI (OVCAR-5 ovarian) of over 100 µM. It also gave a GI50 (HT29 colon) of over 100 µM, a TGI (HT29 colon) of over 100 µM and a GI50 (SN12C renal) of over 100 µM. The TGI (SN12C renal) was over 100 µM, the GI50 (HOP-62 NSCLC) was over 100 µM and the TGI (HOP-62 NSCLC) was over 100 µM. It also gave a GI50 (T-47D breast) of over 100 µM, a TGI (T-47D breast) of over 100 µM and a GI50 (MDA-MB-435) of over 100 µM. The TGI (MDA-MB-435) was over 100 µM, the GI50 (OVCAR-3 ovarian) was over 100 µM and the TGI (OVCAR-3 ovarian) was over 100 µM.
